# Entries after “also recorded” stand apart in the source; their conditions may differ.
# Key:
# [1] = system: Staphylococcus aureas; experiment: Antimicrobial spectrum, liquid media, viable cell count; type: cell-based, Staphylococcus aureus; settings: saturating concentrations
# Experimental: (§1) Saturated solutions of TA and Focusin were prepared by adding 1.14 μg TA and 7 μg Focusin to 1 ml LB (final conc. of 1% ethanol). About 10^5 bacteria of various strains were then added. The control was bacteria in the same medium with no antibacterial agents. The bacteria were introduced at 37° C. with shaking at 100 rpm. When the control became turbid, viable cell count was performed on LB agar plates. Growth inhibition is presented as percentage of the no antibiotic control.
# [2] = system: E. coli ESS Kan^r; experiment: Paper disc filter antibiotic assay (zone of inhibition); type: cell-based, Escherichia coli
# Experimental: Escherichia coli ESS Kan^r, is a kanamycin resistant strain of E. coli ESS, derived by transducing E. coli ESS with P1:TnV, Kan^r. This strain was used for the standard antibiotic assays.
# LB Kan medium was solidified by 1.5% Bacto agar (Difco). For the antibiotic assay, Nutrient Broth agar plates were used. NB medium is 0.8% Nutrient Broth (Difco) containing 0.5% NaCl (Merck). NB was solidified by 1.8% Bacto agar (Difco). The NB plates were overlaid by 3.5 ml NB soft agar (0.9% Bacto agar) mixed with 0.1 ml E. coli ESS Kan^r overnight culture.
# (§2) Antibiotic activity against E. coli ESS Kan^r was determined by the paper disc filter assay (Leo et al., 1945). Unknown quantities of antibiotic TA or Focusin, dissolved in ethanol, saline or NB were applied to paper disc filters (6 mm diameter; Schleicher and Schull). After allowing the ethanol to evaporate in the hood for about 15 mins, the dry filters were placed on nutrient broth plates which had been overlaid with an overnight culture of E. coli ESS Kan^r as described above.
# (§3) The diameter of the zone of inhibition was recorded after 18 hours in incubation at 37° C. The concentration of the antibacterial agents were determined from a standard inhibition curve prepared with known quantities of TA and Focusin.
# [3] = system: Klebsiella Gr47; experiment: Antimicrobial spectrum, liquid media, viable cell count; type: cell-based; settings: saturating concentrations; hospital strain
# Experimental: as §1
# [4] = system: Pseudomonas aeruginosa; experiment: as above; type: cell-based; settings: saturating concentrations
# Experimental: as §1
# [5] = system: Proteus vulgaris; experiment: as above; type: cell-based; settings: saturating concentrations
# Experimental: as §1
# [6] = system: Bacillus subtilis; experiment: as above; type: cell-based; settings: saturating concentrations
# Experimental: as §1
# [7] = system: Klebsiella pneumoniae; experiment: as above; type: cell-based; settings: saturating concentrations; hospital strain
# Experimental: as §1
# [8] = system: Serratia marcescens; experiment: as above; type: cell-based; settings: saturating concentrations
# Experimental: as §1
# [9] = system: Klebsiella sp; experiment: as above; type: cell-based; settings: saturating concentrations; hospital strain
# Experimental: as §1
# [10] = system: Salmonella thyphimurium; experiment: as above; type: cell-based; settings: saturating concentrations
# Experimental: as §1
# [11] = system: Citrobacter diversus; experiment: as above; type: cell-based; settings: saturating concentrations
# Experimental: as §1
# [12] = system: Erwinia herbicola; experiment: as above; type: cell-based; settings: saturating concentrations
# Experimental: as §1
# [13] = system: Helicobacter pilori; experiment: as above; type: cell-based; settings: saturating concentrations
# Experimental: as §1
# [14] = system: Providencia strautii; experiment: as above; type: cell-based; settings: saturating concentrations
# Experimental: as §1
# [15] = system: Enterobacter; experiment: as above; type: cell-based; settings: saturating concentrations
# Experimental: as §1
# [16] = system: Staphylococcus albus; experiment: as above; type: cell-based
# Experimental: as §1
# [17] = system: E. coli ESS Kan^r; experiment: Sensitivity to combined exposure to light and air (remaining activity by paper disc bioassay); type: physicochemical, Escherichia coli
# Experimental: as §2, §3
# 100 ng of TA and Focusin dissolved in ethanol were applied to paper filters and allowed to dry in a hood for 15 mins. The filters were then exposed to light from a fluorescent lamp in the hood; the distance from the lamp to the filters was approximately 40 cm. The controls were placed in the dark under a plastic box within the hood.
# After exposure of the filters to the light for varying periods of time, the remaining activity of the agents was measured by the paper disc bioassay and the results are shown in the following Table 1: […]
# [18] = type: physicochemical
# Experimental: Focusin and TA at concentrations of 3 mg/ml were diluted either in ethanol or in saline containing 1% ethanol to yield a final concentration in each case of 30 μg/ml. The solutions were mixed at 37° C. for one hour under shaking, and then were centrifuged at 5000 g for 10 minutes. Several samples were taken from the supernatants of the tubes and were applied on disc filters in order to determine the concentration of the antibacterial agents in the saline and ethanol solutions, by the paper disc bioassay method.
# [19] = system: tested bacterial strains; experiment: Antimicrobial spectrum, overall; type: cell-based
# Experimental: as §1
# [20] = system: E. coli ESS; experiment: Antimicrobial spectrum, liquid media, viable cell count; type: cell-based, Escherichia coli; settings: saturating concentrations
# Experimental: as §1
# [21] = system: E. coli K-12; experiment: as above; type: cell-based, Escherichia coli; settings: saturating concentrations
# Experimental: as §1
# [22] = system: E. coli ESS; experiment: Release of Focusin from mouse tissue: inhibition by the 4th wash liquid; type: cell-based, Escherichia coli; settings: for Inhibition % by the 4th wash liquid: 10 μg Focusin
# Experimental: Focusin was tested in the same manner as that described above (under 8.1) with the exception that the tissues in the test tube were washed four times with a solution of 1 ml sterile saline. Each saline wash was for 1 hour at 37° C. Following incubation, the washing saline solution was added to an exponentially growing cultures of E. coli ESS in a concentration of 10^5 cells/ml.
# The cultures with the saline wash were incubated at 37° C. for 6 hours and then viable cell count was performed in order to estimate the amount of killing by the antibacterial agent that were released from the tissues. After the four washes the tissues were transferred to 10^5 E. coli ESS log cultures and were then incubated for 5 hours. The tissues were transferred in this way for three times, each time the percentage of inhibition by the treated tissue was measured by viable count.
# The tissues were treated as described in Section 8.2 above.
smiles,measurement,setting,value
CCCC1OC(=O)C(C)CC(C)CCCCC(=O)CCCC(CC)CCCC(COC)CCC(O)C(O)CC(O)CNC1=O (stereo not shown) [Focusin],killing,[1],100%
same,activity relative to TA at high concentrations,[2]; high concentrations,1/10
same,activity relative to TA at low concentrations,[2]; low concentrations,approximately 1/8
same,amount giving an inhibition zone of 11 mm,"[2]; zone 11 mm, paper disc",640 ng
same,amount required to obtain a zone of inhibition of about 2 mm,"[2]; zone about 2 mm, paper disc",60 ng
same,killing,[3],100%
same,killing,[4],0%
same,killing,[5],90%
same,killing,[6],100%
same,killing,[7],96%
same,killing,[8],67%
same,killing,[9],60%
same,killing,[10],40%
same,killing,[11],100%
same,killing,[12],100%
same,killing,[13],100%
same,killing,[14],100%
same,killing,[15],100%
same,incubation time after which the strain began to show sensitivity,[16]; saturating concentrations,> 46 h
same,killing,"[16]; saturating concentrations (Focusin), on the 46th hour",73%
same,activity after exposure to light and air,[17]; 0 hours,100%
same,activity after exposure to light and air,[17]; 1 hour,100%
same,activity after exposure to light and air,[17]; 4 hours,100%
same,activity after exposure to light and air,[17]; 6 hours,100%
same,activity after exposure to light and air,[17]; 8 hours,100%
same,activity after exposure to light and air,[17]; 20 hours,100%
same,stability to exposure to light and air (in words),"[17]; combined light and air, up to 20 hours",much more stable to exposure to light and air than the TA antibiotic; also recorded: completely resistant to breakdown
same,aqueous solubility compared with TA (in words),[18],higher aqueous solubility than TA
same,solubility in ethanol,[18],completely soluble
same,solubility in saline,"[18]; saline with 1% ethanol, 1 h",about 7 μg/ml
same,antibacterial activity spectrum (in words),[19],broad spectrum antibacterial activity against both Gram-positive and Gram-negative bacteria
same,killing,[20],100%
same,killing,[21],100%
same,inhibition of E. coli growth by the fourth liquid wash (in words),[22]; all tissues except liver,completely inhibit the E. coli growth
same,Inhibition % by the 4th wash liquid,[22]; bladder,100%
same,Inhibition % by the 4th wash liquid,[22]; eye,100%
same,Inhibition % by the 4th wash liquid,[22]; heart,100%
same,Inhibition % by the 4th wash liquid,[22]; intestine,100%
same,Inhibition % by the 4th wash liquid,[22]; kidney,100%
same,Inhibition % by the 4th wash liquid,[22]; liver,67%
same,Inhibition % by the 4th wash liquid,[22]; lungs,100%
same,Inhibition % by the 4th wash liquid,[22]; spleen,100%
same,Inhibition % by the 4th wash liquid,[22]; teeth,100%

# From US5532231A, “Antibacterial agent” (priority 1994, dated 1996)
